Assay: Skin moisture after application of moisturizing compositions (Corneometer)
Format: in vivo
Details: applied to skin
Description: Glycerol monostearate (GMS) cream moisturizing compositions containing 2% glycerin (Sample 1), 1% sodium erythorbate (Sample 2), 1% δ-gluconolactone (Sample 3), or 2% of a biodegradation prevention mixture containing 75% (by weight) sodium benzoate and 25% (by weight) sodium erythorbate were tested as follows.
The GMS cream was prepared as follows. Polyoxyethylene glyceryl monostearate, glyceryl monostearate, cetearyl alcohol, and myristyl propionate were mixed and heated to 60° C. in a first container. In four separate containers, glycerin, sodium erythorbate, δ-gluconolactone, or the aforementioned biodegradation prevention mixture were mixed with sterile deionized water and heated to 60° C. The solution in the first container was poured into each container containing glycerin, sodium erythorbate, δ-gluconolactone, or the biodegradation prevention mixture to produce the desired concentrations, e.g., 2% glycerin (w/w) (Sample 1), 1% sodium erythorbate (w/w) (Sample 2), 1% δ-gluconolactone (w/w) (Sample 3), or 2% biodegradation prevention mixture (w/w) (Sample 4). The containers were maintained at 60° C. for 10 minutes, and then allowed to cool. The pH of the solution was adjusted to pH 7 with sodium hydroxide to yield the GMS cream.
The moisturizing compositions were applied once to skin and skin moisture measurements were taken over a 7 day period following administration. […]

Row | Compound | Skin moisturization compared with known moisturizers such as glycerin
1 | O=C1O[C@H]([C@H](O)CO)C([O-])=C1O.[Na+] [sodium erythorbate] | moisturize skin more effectively than many known moisturizers
2 | O=C1O[C@H](CO)[C@@H](O)[C@H](O)[C@H]1O [δ-gluconolactone] | moisturize skin more effectively than many known moisturizers

— patent US20060093634A1, “Personal care compositions and concentrates for making the same” (Lonza Inc., priority 2004, published 2006)
